Assay results reported in patent publication US11110070B2 (priority 2015, dated 2021).
Entries after “also recorded” stand apart in the source; their conditions may differ.

What was measured:
C57BL/6NTac mice = experiment: FST in chronic corticosterone (CORT) model; type: in vivo
129S6/SvEvTac mice [1] = experiment: 1-shock contextual fear conditioning (CFC) in SD experiments; type: in vivo; details: ketamine after SD
Protocol: The 1-shock CFC procedure was performed as previously published (A15). Briefly, mice were placed into context A and administered a 2-s shock (0.75 mA) 180 s later. Mice were removed from the context 15 s following the termination of shock (at 197 s). For context retrieval, mice were placed back into context A for 180 s. For alternate contexts, mice were placed into the contexts for 180 s.

129S6/SvEvTac mice [2] = experiment: Learned helplessness (LH) shock escape; type: in vivo; details: ketamine 30 mg kg^−1 1 week before LH training, vs saline
Protocol: Experiment 4 (Pre-ketamine in learned helplessness (LH)); At 8 weeks of age, a single injection of saline or ketamine (30 mg kg^−1) was administered. One week following this injection, LH training (inescapable shock) was administered. Two weeks later, mice were administered LH testing (shock escape).
The LH paradigm was used to induce depressive-like behavior (A4). In this paradigm, mice are exposed to unpredictable and uncontrollable stress (shocks) and then develop coping deficits to deal with the inescapable shocks. We modified a previously published paradigm (A5). Briefly, the procedure was conducted in a two-chamber shuttle box (model ENV 010MD; Med Associates, St. Albans, Vt.) located within a sound-attenuated cubicle. The grid floor was made of stainless steel and connected to a shock generator. The scrambled shock generator (model ENV 414S, Med Associates) created varying electrical potential differences between bars preventing an animal from avoiding shock.
Inescapable shock (training): At approximately 9 weeks of age, mice were trained in the LH paradigm. For each shuttle box, 2 animals were administered the protocol at the same time: the central door was closed, with one animal in the chamber on each side. After a 3 min habituation period, the shock deliveries began. […]

129S6/SvEvTac mice [3] = experiment: Dominant interaction test after SD; type: in vivo
Protocol: Adult aggressor CD-1 male mice were single-housed in Macrolon® polycarbonate resin cages (15.25 in×7.8 in×9.5 in) (Animal Care Systems, Inc., Centennial, Colo.). Male 129S6/SvEvTac mice (9 weeks of age) were subsequently placed into the resident. CD-1 mouse's cage. Three antagonistic encounters were allowed between the CD-1 mouse and the intruder. Each of these encounters typically lasted less than 5 min. Following the encounters, mice were separated by a polished stainless steel cage divider (Animal Care Systems, Inc., Centennial, Colo., P/N C79171), which allowed for olfactory and auditory communication, but limited visual or tactile contact. The partition was removed daily for 2 weeks and 3 antagonistic encounters were allowed between the mice each day. This procedure consistently yielded a submissive phenotype in the experimental intruder mice. Control (Ctrl) mice were group housed 4 to 5 per cage in Macrolon® polycarbonate resin cages without dividers.
Dominant interaction was performed as previously described (A12). Briefly, mice were placed into a large open field containing 2 upside-down wire mesh pencil cups. One pencil cup served as a novel object or empty container. The other pencil cup contained the CD-1 aggressor mouse. Mice were placed in the middle of the open field arena and allowed to explore for 10 min. Sessions were videotaped and the first 5 min were later analyzed using behavioral tracking software (TopScan, CleverSys, Reston, Va.).

patients with MDD = details: cited from earlier work
129S6/SvEvTac mice [4] = experiment: Open field (OF) after reinstatement; type: in vivo
Protocol: OF protocol was administered as previously described (Richardson-Jones et al., 2010).

[5] = SD mice, ketamine 30 mg kg^−1 before SD, vs SD-Sal

## CNC1(c2ccccc2Cl)CCCCC1=O (racemic) [ketamine, (RS)-2-(2-chlorophenyl)-2-(methylamino)cyclohexanone]
C57BL/6NTac mice; C57BL/6NTac mice, doses tested 10, 30, 90 mg kg^−1
  most effective dose in protecting against depressive-like behavior following chronic CORT: 90 mg/kg
C57BL/6NTac mice; CORT model
  persistence of ketamine-induced resilience post-injection: ≥ 4 weeks
C57BL/6NTac mice; ketamine 90 mg kg^−1 or fluoxetine 18 mg kg^−1/day, before 3 weeks of CORT
  immobility time on day 2 in the FST: decreased immobility time; also recorded: significantly reduced immobility
129S6/SvEvTac mice [1]
  CFC learning (freezing): did not impact CFC learning; also recorded: comparable levels of freezing
129S6/SvEvTac mice [2]; testing 2 weeks later
  latency to escape the shock: decreased latency to escape the shock; also recorded: significantly less
129S6/SvEvTac mice [2]
  session length (all 30 trials): significantly shorter; also recorded: significantly less
129S6/SvEvTac mice [3]; Ctrl mice, ketamine 30 mg kg^−1 vs saline
  time investigating the empty enclosure quadrant: equivalent amount of time investigating the empty enclosure quadrant
129S6/SvEvTac mice [3]; [5]
  interaction with the CD-1 aggressor mouse: significantly increased willingness to interact with the CD-1; also recorded: considerably more time investigating a CD-1 mouse
  time investigating the empty enclosure quadrant: significantly less time investigating the empty enclosure quadrant
Patients with MDD; in vivo
  duration of sustained effects following the infusion: 1-2 weeks
Patients with MDD; patients with MDD
  time to antidepressant effects following a single injection: 2 h
129S6/SvEvTac mice [4]; ketamine 1 week prior to 1-shock reinstatement, vs saline
  number of rearing bouts in the OF: higher number of rearing bouts; also recorded: increased number of rearing bouts
129S6/SvEvTac mice [4]; ketamine 1 week prior to 3-shock reinstatement
  number of rearing bouts in the OF: comparable number of rearing bouts
